BindingDB's records for doi:10.1002/cbic.201600513 (University of Florida, 2017)

Tests used:
Carbonic anhydrase 2 = Carbonic anhydrase 2 (Homo sapiens, UniProt P00918); assay: CA Inhibition Assay
From the text: (§1) CA-catalyzed CO2 hydration activity methods were published previously by Cornelio et al. as part of a larger series of benzenesulfonamide-based inhibitors with aryl substitutions in the para position of the benzene ring.

Carbonic anhydrase 12 = Carbonic anhydrase 12 (Homo sapiens, UniProt O43570); assay: CA Inhibition Assay
Carbonic anhydrase 12, sequence (O43570 whole entry): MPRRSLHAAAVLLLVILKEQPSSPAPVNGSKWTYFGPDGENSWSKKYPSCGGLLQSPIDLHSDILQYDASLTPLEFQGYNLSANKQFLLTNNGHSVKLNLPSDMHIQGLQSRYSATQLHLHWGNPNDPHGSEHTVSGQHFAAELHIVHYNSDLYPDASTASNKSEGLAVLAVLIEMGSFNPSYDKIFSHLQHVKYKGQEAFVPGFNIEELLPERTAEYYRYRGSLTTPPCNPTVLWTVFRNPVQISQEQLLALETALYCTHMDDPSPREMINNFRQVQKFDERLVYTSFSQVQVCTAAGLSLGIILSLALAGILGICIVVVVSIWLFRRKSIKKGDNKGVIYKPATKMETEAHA
From the text: as §1

Ki (Carbonic anhydrase 2) [nM]	Ki (Carbonic anhydrase 12) [nM]	Compound
0.8	–	NS(=O)(=O)c1ccc(-c2ccccc2)cc1 [4-(phenyl)-bezenesulfonamide (4a)]
2	0.6	NS(=O)(=O)c1ccc(-c2cccc(C=O)c2)cc1 [4-(3-formylphenyl)-benzenesulfonamide (4e)]
